In publication PMC5592152 (Bioorganic & medicinal chemistry letters, 2017) one finds agonist activity and antagonist activity data, which are given here for one molecule.

The structures appear in SMILES notation.

Test in all cases: electrophysiological experiments, voltage clamp of oocytes
Holding throughout (type): cell-based

For test [1], the target named is α3β4 nAChR (Homo sapiens, UniProt P30926+P32297).
For test [2], the target named is α4β2 nAChR (Homo sapiens, UniProt P17787+P43681).
The target in test [3] is α7 nAChR (Homo sapiens, UniProt P36544).
Sequence of α7 nAChR (P36544 23-502): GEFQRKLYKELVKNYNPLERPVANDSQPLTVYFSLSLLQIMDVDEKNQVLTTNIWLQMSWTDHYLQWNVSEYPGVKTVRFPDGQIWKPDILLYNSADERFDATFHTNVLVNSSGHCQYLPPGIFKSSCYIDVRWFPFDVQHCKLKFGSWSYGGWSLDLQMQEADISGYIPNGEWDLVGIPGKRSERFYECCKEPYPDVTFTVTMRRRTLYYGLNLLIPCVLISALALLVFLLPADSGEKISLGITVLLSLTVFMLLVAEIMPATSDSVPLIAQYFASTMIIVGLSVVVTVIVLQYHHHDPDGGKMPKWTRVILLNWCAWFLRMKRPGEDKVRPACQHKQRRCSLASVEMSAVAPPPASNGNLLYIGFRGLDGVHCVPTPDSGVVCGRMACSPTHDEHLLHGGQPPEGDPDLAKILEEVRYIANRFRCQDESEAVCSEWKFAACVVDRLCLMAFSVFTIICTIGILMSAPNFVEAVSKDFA

Sequence of α3β4 nAChR (P32297 32-505): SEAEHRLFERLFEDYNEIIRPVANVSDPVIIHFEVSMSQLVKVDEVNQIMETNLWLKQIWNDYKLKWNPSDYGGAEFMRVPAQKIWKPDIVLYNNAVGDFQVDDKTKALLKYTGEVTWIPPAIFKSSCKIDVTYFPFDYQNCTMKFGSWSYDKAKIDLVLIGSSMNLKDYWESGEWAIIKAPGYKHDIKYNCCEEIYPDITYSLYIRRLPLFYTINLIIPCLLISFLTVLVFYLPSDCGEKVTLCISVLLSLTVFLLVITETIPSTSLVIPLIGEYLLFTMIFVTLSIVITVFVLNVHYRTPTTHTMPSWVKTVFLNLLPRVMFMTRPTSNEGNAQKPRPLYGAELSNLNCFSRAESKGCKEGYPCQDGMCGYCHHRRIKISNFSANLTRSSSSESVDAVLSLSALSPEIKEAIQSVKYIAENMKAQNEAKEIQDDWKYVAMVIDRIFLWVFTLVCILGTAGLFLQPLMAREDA
Sequence of α3β4 nAChR (P30926 22-498): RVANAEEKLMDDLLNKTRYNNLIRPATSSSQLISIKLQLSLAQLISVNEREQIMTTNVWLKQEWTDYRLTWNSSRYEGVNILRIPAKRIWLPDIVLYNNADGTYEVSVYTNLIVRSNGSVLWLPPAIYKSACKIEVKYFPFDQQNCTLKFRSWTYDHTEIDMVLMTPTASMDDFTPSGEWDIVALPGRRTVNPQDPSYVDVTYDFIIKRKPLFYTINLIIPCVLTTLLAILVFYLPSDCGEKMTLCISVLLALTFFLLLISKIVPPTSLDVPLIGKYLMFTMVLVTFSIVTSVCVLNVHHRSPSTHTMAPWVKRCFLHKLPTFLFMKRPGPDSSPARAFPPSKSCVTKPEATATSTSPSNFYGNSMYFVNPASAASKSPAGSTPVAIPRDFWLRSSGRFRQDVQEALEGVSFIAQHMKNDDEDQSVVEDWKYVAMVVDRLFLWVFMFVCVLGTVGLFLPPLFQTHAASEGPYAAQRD
Sequence of α4β2 nAChR (P43681 29-627 limits assumed): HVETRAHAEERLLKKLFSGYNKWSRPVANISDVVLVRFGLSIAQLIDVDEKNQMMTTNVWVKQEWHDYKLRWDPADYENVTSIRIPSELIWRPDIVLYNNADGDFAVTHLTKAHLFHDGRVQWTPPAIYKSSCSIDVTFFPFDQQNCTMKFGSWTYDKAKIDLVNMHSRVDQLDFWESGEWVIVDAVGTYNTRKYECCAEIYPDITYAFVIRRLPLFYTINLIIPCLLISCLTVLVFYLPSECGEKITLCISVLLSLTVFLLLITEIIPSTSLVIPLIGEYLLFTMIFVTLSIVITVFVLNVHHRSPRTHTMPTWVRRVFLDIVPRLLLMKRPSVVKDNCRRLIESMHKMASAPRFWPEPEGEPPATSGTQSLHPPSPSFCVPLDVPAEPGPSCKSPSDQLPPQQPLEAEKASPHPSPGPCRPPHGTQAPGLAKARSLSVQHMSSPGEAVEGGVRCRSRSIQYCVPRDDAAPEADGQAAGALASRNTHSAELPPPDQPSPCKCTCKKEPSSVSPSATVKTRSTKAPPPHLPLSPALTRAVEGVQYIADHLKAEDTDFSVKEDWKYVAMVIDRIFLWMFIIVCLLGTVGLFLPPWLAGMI
Sequence of α4β2 nAChR (P17787 26-502): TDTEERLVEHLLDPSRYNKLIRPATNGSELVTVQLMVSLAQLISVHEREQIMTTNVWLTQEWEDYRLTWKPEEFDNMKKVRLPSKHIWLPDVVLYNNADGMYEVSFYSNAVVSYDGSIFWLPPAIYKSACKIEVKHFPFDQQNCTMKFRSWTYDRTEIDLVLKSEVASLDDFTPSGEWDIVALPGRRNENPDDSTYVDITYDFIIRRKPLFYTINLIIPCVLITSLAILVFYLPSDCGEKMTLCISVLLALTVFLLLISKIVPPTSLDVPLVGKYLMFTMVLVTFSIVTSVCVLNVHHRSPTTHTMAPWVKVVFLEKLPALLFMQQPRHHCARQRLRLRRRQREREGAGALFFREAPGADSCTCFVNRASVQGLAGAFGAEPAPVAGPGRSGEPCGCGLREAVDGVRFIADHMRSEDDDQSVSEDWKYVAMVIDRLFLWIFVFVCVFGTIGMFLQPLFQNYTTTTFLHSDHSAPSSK

Turning to `CN1CCC=C(c2cnc(F)c(-c3ccccc3)c2)C1` [Compound 3a], the agonist activity result in test [1] (100 μM for α3β4, normalized to control ACh response) is reported as “no significant agonist activity”; in test [2] (30 μM for α4β2, normalized to control ACh response), “no significant agonist activity”; in test [3] (60 μM for α7, normalized to control ACh response), “no significant agonist activity”. In addition, the antagonist activity entry in test [1] (compound at 100 μM, with ACh 100 μM) was “significantly antagonized”; in test [2] (compound at 100 μM, with ACh 30 μM) it was “no significant antagonist activity”; in test [3] (compound at 100 μM, with ACh 60 μM) it was “no significant antagonist activity”.
